Values quoted from earlier work in patent US20080305994A1, “Pharmaceutical Compositions and Method for Treating, Reducing, Ameliorating, Alleviating, or Preventing Dry Eye” (priority 2007, published 2008).

Columns and labels:
[1] = system: lipopolysaccharide ("LPS")-induced leukocyte recruitment within pulmonary arterioles, capillaries, and venules; details: rabbits, inhibition of PARP
[2] = system: intercellular adhesion molecule 1 ("ICAM-1"); details: rabbits; inhibition of PARP

## NC(=O)c1cccc(N)c1 [3-aminobenzamide]
[1]
  LPS-induced leukocyte recruitment within pulmonary arterioles, capillaries, and venules: reduced
[2]
  expression of intercellular adhesion molecule 1 (ICAM-1): suppressed
